Measured values published in patent US8685976B2, “Cell adhesion promoting agent and method of promoting cell adhesion” (Kyoto University, priority 2008, dated 2014).

What was measured:
[1] = tested on: HepG2 cells; assay: Cell adhesion assay by addition, HepG2 cells; type: cell-based; conditions: 0.6-60 μM in medium, 3-hour incubation, reattachment after trypsin treatment
Method: HepG2 cells were cultured in MEM supplemented with 10% fetal bovine serum (FBS) and 1% penicillin/streptomycin at 37° C. under 5% CO2. Jurkat cells were cultured in RPMI-1640 supplemented with 10% fetal bovine serum (FBS) and 1% penicillin/streptomycin at 37° C. under 5% CO2. For the screening of small molecule compounds, 100 μL of HepG2 suspension (2×10^5 cells/mL) was plated into 96-well plates supplied with each compound at a concentration of 20 μg/mL. After 3, 16, and 24 hours, the cells were subjected to microscopic observation to examine phenotypic changes. CHO K1 cells and CHO mutant cell lines were maintained in Ham's F-12 medium supplemented with 7.5% fetal bovine serum.
1 μL each of an aqueous solution of adhesamine (1), Type I collagen, poly-L-lysine hydrochloride, poly-L-ornithine hydrobromide, and fibronectin at a concentration of 50, 500, and 5000 μg/ml, was added to 96-well plate. […] After 3-hour incubation at 37° C., non-adherent cells were removed by washing each well with PBS three times, and the attached cells were counted with a Neubauer counting chamber (Digital Bio). […] Each assay was conducted in triplicate, and the means and standard derivations were calculated. […]

[2] = tested on: extracellular signal-regulated kinase (ERK); assay: Western blotting, ERK activation; type: cell-based, human; conditions: Jurkat, 6 μM
Method: Jurkat cells were treated with adhesamine (6 μM) in a serum-poor culture medium (0.1% FBS) for the indicated periods of time. The treated cell lysates were Western blotted with antibodies against FAK phospho-tyrosine^397 (pFAK), FAK, ERK1/2 phospho-threonine^202/tyrosine^204 (pERK) or ERK. In (B), Jurkat cells were incubated for 5 hours with varied concentrations of adhesamine or poly-L-lysine. The cell lysates were Western blotted with antibodies against FAK phospho-tyrosine^397 or FAK. […] The concentration of adhesamine (1) was 6 μM.
Jurkat cells were maintained in an RPMI medium containing 10% FBS. 5-6 million Jurkat cells were dispensed to a well of a 6-well plate in a final volume of 2 mL, and then incubated at 37° C. for 0-5 hours in the presence of adhesamine or poly-L-lysine. Non-adherent cells were removed and pelleted, and the remaining adherent cells were lysed in a 125 mM Tris-HCl buffer (pH 6.8) containing 4% SDS, 10% glycerol, 0.006% bromophenol blue, and 1.8% β-mercaptoethanol. The adherent cell homogenate was combined with pelleted nonadherent cells from the same well, and the combined sample was boiled for 5 minutes. The samples were separated by SDS-PAGE and electroblotted onto a nitrocellulose membrane. The membranes were blocked in 1% BSA and incubated with primary antibody, and then with horseradish peroxidase-conjugated secondary antibody. […]

[3] = tested on: Jurkat cells; assay: Cell detachment assay; type: cell-based, human; conditions: 24 hour after washing (removal of adhesamine)
Method: FIG. 2 is a graph illustrating a reversible activity of adhesamine (1). The attached cells were counted at the indicated time points after removal of adhesamine (1). In order to calculate adhesion rates, the number of cells before washing was assigned a value of 100%. Each assay was conducted in triplicate, and the means and the standard deviations were calculated for a minimum of three independent experiments.
1 μL DMSO solution of adhesamine (1) (6 mM) was dispensed to each well on a 96-well plate. Jurkat cells were suspended in the growth medium, and 100 μL of cell suspension was added to each well at a density of 1×10^6 cells/mL. After 5-hour incubation at 37° C., the medium was aspirated, and the plates were washed twice with PBS. 100 μL of fresh medium was added to each well. After further 4, 8, 14 and 24-hour incubation at 37° C., non-adhered cells were removed by washing with PBS twice, and the attached cells were counted with a Neubauer counting chamber. To calculate adhesion rates, the cell numbers before washing were assigned a value of 100%. Each assay was conducted in triplicate, and the means and standard derivations were calculated for a minimum of three independent experiments.

[4] = tested on: HepG2 cells; assay: Cell growth assay (WST-8), HepG2; type: cell-based
Method: In (A) and (B), the cell growth was determined at 24, 48, and 72 hours after the addition of adhesamine (1) (6 μM). The cell growth in the presence of 1% (v/v) DMSO was assigned a value of 100%. The data shown are means±SD for a minimum of three experiments. (C) to (F) show the rearrangement of actin filaments in HepG2 and Jurkat cells in the presence of adhesamine (6 μM). Brightfield images (C and D) and confocal images (E and F) are shown. HepG2 (C and E) or Jurkat (D and F) cells were plated for 5 hours or 3 hours, respectively, and actin cytoskeletal was visualized using rhodamine-labeled phalloidin.
1 μL DMSO solution of adhesamine (1) was added to 96-well plate at a concentration of 600 μM. […] After incubation for indicated time, the cell viability was measured using Cell Counting Kit-8 (Dojindo Molecular Technologies, Inc., Gaithersburg, Md.), which contains a tetrazolium salt (WST-8) that produces a water-soluble formazan dye by NADH dehydrogenases in living cells. […] The optical density (OD) of the solution was read by a microplate reader, using a test wavelength at 450 nm and a reference wavelength at 650 nm. […] Each assay was conducted in triplicate, and the means and standard derivations were calculated for a minimum of three independent experiments.

CSc1nc(Cl)c(C=O)c(N2CC[N+]3(CC2)CC[N+]2(CCN(c4nc(SC)nc(Cl)c4C=O)CC2)CC3)n1 [adhesamine]
enhancement of the adhesion of HepG2 cells [1]: up to twofold | time after incubation at which ERK was phosphorylated [2]: 5 h | Jurkat cells released from the surface of a culture plate [3]: 93% | cytotoxicity ([4]; HepG2, 6 μM): no obvious cytotoxicity | growth of the cells ([4]; HepG2, 6 μM, 24, 48, 72 hours, vs 1% DMSO): slightly enhanced
